From ChEMBL document CHEMBL1140360, “Synthesis and biological activity of 3,4-dihydroquinazolines for selective T-type Ca2+ channel blockers” (Bioorg Med Chem Lett, 2005)

Experiments:
Format in all cases: cell-based
[1] = molecular target: T1, Voltage-dependent T-type calcium channel subunit alpha-1G (Homo sapiens, UniProt O43497); experiment: Inhibition of T-type [Ca2+] channel (alpha1G) expressed in HEK293 cells
[2] = molecular target: Voltage-dependent T-type calcium channel subunit alpha-1H (Homo sapiens) (UniProt O95180); experiment: Percent inhibition of T-type [Ca2+] channel (alpha1H) stably expressed in Xenopus oocytes at 100 uM; details: Oocyte
[3] = molecular target: Voltage-dependent N-type calcium channel subunit alpha-1B (Homo sapiens) (UniProt Q00975); experiment: Percent inhibition of N-type [Ca2+] channel (Alpha-1B) expressed in HEK293 cells at 10 uM
[4] = system: HEK293; experiment: Selectivity for T-type and N-type [Ca2+] channels expressed in HEK293 cells at 10 uM; details: Homo sapiens
[5] = molecular target: T1, Voltage-dependent T-type calcium channel subunit alpha-1G; experiment: Percent inhibition of T-type [Ca2+] channel (alpha1G) expressed in HEK293 cells at 10 uM
[6] = molecular target: Voltage-dependent N-type calcium channel subunit alpha-1B (Homo sapiens) (UniProt Q00975); experiment: Percent inhibition of N-type [Ca2+] channel (Alpha-1B) expressed in HEK293 cells at 10 uM; No blocking

Chain of Voltage-dependent N-type calcium channel subunit alpha-1B (Homo sapiens) (Q00975 whole entry, looked up): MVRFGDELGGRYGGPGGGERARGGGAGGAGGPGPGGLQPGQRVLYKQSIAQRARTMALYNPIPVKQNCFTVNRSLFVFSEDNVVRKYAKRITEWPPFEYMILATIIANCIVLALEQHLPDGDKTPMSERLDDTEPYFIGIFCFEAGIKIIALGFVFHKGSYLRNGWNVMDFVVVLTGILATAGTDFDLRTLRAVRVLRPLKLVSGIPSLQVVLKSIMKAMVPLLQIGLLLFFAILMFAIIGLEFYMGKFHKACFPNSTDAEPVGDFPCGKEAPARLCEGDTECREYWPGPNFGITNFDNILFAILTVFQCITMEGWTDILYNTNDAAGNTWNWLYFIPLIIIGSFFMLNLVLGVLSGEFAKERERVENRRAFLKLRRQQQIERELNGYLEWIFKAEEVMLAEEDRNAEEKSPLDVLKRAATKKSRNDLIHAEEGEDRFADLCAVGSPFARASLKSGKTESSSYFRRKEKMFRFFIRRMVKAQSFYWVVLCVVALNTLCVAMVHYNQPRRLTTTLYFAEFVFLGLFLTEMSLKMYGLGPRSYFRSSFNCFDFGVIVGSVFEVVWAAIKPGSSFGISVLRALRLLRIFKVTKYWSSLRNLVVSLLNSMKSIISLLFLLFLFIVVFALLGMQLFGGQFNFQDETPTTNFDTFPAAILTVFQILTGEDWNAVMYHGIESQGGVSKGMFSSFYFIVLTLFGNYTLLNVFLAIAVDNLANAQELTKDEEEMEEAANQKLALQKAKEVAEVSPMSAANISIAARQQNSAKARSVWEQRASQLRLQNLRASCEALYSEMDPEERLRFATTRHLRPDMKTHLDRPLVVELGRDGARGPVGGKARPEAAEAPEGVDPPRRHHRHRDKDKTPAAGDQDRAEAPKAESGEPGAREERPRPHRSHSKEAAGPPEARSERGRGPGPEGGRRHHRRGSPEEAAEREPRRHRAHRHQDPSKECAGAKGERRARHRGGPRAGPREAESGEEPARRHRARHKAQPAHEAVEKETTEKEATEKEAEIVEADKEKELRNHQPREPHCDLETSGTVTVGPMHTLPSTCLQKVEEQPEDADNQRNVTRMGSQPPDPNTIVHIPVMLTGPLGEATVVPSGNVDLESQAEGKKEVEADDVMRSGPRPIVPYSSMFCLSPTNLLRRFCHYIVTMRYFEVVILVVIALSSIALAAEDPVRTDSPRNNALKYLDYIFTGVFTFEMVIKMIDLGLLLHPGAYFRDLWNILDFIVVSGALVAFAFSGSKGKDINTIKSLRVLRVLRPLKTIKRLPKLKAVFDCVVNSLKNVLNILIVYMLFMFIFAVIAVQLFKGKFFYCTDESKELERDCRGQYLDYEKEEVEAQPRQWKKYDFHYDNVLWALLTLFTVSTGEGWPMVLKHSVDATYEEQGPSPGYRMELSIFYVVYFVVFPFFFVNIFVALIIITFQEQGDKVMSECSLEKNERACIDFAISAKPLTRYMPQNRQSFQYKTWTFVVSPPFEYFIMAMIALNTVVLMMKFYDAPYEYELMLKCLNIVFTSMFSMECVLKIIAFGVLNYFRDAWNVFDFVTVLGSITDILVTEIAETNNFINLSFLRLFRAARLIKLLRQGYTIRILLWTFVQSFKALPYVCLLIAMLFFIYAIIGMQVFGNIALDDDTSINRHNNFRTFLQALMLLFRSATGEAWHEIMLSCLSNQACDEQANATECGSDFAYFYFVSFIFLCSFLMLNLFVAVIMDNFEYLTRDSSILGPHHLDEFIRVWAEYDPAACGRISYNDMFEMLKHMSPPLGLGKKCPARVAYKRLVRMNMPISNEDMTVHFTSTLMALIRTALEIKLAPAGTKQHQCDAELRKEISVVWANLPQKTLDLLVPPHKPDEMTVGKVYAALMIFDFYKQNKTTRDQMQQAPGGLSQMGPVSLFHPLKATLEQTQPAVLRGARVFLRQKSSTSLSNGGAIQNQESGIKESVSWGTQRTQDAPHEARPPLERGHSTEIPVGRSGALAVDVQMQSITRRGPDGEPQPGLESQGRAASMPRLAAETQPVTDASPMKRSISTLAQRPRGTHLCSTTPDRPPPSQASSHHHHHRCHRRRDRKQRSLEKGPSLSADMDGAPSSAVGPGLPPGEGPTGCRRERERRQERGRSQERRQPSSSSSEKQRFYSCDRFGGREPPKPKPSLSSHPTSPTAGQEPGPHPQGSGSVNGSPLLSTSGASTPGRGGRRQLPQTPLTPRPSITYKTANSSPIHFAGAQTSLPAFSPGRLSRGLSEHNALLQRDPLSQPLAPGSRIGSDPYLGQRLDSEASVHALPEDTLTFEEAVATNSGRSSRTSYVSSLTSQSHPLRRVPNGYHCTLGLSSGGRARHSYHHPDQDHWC
T1 sequence (O43497 whole entry): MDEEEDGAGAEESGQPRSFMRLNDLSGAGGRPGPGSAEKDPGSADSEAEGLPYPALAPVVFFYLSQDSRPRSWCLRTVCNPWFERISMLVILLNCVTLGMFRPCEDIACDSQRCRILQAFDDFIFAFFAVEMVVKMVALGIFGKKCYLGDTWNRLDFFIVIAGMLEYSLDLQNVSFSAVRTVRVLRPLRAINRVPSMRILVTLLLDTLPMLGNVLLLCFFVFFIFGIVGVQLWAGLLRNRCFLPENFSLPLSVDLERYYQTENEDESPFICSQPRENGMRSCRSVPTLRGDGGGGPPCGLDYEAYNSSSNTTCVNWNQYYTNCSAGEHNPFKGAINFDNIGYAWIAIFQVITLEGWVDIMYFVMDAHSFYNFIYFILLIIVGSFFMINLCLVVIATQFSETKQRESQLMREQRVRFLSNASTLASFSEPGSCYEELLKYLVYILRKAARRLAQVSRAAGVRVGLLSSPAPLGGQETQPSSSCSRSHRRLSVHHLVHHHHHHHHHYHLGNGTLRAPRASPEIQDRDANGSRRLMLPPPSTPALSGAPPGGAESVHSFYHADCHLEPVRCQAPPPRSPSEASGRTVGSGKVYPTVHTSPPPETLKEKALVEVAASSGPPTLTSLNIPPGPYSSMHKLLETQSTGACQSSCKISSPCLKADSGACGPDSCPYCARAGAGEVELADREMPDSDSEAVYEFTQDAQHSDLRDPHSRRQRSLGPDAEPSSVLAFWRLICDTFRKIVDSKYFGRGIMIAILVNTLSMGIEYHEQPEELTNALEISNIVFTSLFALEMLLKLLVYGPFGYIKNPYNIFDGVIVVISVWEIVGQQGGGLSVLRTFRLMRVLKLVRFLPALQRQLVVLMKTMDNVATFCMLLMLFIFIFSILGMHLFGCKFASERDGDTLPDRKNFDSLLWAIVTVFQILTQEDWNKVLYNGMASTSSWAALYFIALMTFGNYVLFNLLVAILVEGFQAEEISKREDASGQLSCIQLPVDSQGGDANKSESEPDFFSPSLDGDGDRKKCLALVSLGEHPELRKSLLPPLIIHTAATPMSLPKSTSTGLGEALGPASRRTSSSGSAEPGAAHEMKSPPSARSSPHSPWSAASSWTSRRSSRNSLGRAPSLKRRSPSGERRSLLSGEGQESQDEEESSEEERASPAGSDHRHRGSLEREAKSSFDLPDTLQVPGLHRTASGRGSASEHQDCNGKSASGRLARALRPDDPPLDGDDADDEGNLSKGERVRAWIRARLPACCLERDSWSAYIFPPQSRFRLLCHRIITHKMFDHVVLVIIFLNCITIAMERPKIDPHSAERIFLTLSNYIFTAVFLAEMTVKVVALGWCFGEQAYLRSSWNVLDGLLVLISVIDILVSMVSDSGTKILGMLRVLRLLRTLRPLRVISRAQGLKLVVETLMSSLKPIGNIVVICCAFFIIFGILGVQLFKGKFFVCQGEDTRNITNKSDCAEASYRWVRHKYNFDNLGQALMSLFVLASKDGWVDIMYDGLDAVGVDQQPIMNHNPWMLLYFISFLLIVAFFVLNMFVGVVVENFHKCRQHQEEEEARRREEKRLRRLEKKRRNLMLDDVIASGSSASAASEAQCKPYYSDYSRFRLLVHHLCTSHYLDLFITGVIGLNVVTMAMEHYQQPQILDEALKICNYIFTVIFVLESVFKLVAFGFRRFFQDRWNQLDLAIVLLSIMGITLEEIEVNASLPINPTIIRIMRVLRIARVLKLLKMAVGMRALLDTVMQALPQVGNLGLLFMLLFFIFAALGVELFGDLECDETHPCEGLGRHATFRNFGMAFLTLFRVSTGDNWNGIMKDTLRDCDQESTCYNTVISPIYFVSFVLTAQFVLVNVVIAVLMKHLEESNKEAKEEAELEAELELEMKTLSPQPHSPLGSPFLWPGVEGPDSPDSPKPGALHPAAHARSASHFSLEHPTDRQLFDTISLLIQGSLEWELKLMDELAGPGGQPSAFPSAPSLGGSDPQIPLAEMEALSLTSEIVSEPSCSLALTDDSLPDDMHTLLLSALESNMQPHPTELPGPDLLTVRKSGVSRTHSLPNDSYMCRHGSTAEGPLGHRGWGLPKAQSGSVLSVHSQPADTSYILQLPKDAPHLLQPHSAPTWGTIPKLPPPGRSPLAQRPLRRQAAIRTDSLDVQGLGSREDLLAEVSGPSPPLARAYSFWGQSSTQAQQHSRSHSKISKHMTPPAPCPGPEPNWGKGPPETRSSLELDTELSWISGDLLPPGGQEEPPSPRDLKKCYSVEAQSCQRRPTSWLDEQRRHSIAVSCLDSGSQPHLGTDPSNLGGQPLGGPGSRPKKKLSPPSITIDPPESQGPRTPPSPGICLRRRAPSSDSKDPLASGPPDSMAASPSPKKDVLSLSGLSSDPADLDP

Row | SMILES | IC50 [1] [nM] | inhibition [2] [%] | inhibition [3] [%] | Selectivity [4] | inhibition [5] [%] | inhibition [6] [%]
1 | O=C(CC1c2ccccc2N=C(N2CCCCC2)N1c1ccccc1)NCc1ccccc1 (configuration not stated) | 1160 | – | – | – | – | –
2 | COC(=O)CC1c2ccccc2N=C(Nc2ccc(-c3ccccc3)cc2)N1CCCCCN (configuration not stated) | 300 | 94.6 | 7.5 | 11.2 | 84.1 | –
3 | CC(C)(C)OC(=O)NCCCCCNC1=Nc2ccccc2C(CC(=O)NCc2ccccc2)N1c1ccc(-c2ccccc2)cc1 (configuration not stated) | 160 | 84.2 | 16.6 | 5.3 | 88.3 | –
4 | COC(=O)CC1c2ccccc2N=C(Nc2ccc(-c3ccccc3)cc2)N1CCCCCNC(=O)OC(C)(C)C (configuration not stated) | 370 | 96.5 | 94.9 | 0.9 | 88.5 | –
5 | CC(C)(C)OC(=O)NCCCCCN1C(Nc2ccc(-c3ccccc3)cc2)=Nc2ccccc2C1CC(=O)NCc1ccccc1 (configuration not stated) | 170 | 91.2 | 30.1 | 2.9 | 88.5 | –
6 | COCC(=O)O[C@]1(CCN(C)CCCc2nc3ccccc3[nH]2)CCc2cc(F)ccc2[C@@H]1C(C)C | – | – | 67.6 | – | – | –
7 | NCCCCCN1C(Nc2ccc(-c3ccccc3)cc2)=Nc2ccccc2C1CC(=O)NCc1ccccc1 (configuration not stated) | 140 | 97 | 15.2 | 6 | 91.8 | –
8 | Cc1ccc(S(=O)(=O)Nc2ccc(CNC(=O)CC3c4ccccc4N=C(N4CCCCC4)N3c3ccccc3)cc2)cc1 (configuration not stated) | 170 | – | – | – | – | –
9 | NCCCCCNC1=Nc2ccccc2C(CC(=O)NCc2ccccc2)N1c1ccc(-c2ccccc2)cc1 (configuration not stated) | 130 | 80.1 | 8.3 | 10.1 | 83.8 | –
10 | COC(=O)CC1c2ccccc2N=C(NCCCCCNC(=O)OC(C)(C)C)N1c1ccc(-c2ccccc2)cc1 (configuration not stated) | 680 | 92.2 | 98.6 | 0.9 | 86.5 | –
11 | O=C(CC1c2ccccc2N=C(N2CCCCC2)N1c1ccccc1)NCc1ccc(NS(=O)(=O)c2ccc(F)cc2)cc1 (configuration not stated) | 110 | – | – | – | – | –
12 | COC(=O)CC1c2ccccc2N=C(NCCCCCN)N1c1ccc(-c2ccccc2)cc1 (configuration not stated) | – | 97 | – | – | 82.5 | < 1
